Five compounds from the supplement of paper PMC10307832 can be followed below.

SMILES strings stand for the structures.

One test has as its system SK-MES-1. The test can be described thus: relative viability (nuclei count vs DMSO), 5 days (fraction); higher = more cells survive. The note with it: first compound 0.08 µM. The method, boiled down:
(§1)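 Dosing by pin tool came one day after lung cancer cell lines were seeded in 1536-well plates, using either one drug or a fixed anchor-drug dose plus five library-drug doses (not always all listed) in √10 steps. After 5 days, nuclei were counted on 4× images. Relative viability is treated-well nuclei count divided by vehicle-well nuclei count, and values are medians of duplicate plates.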
As to `CCCCCCCCCCCC1=C(O)C(=O)C=C(O)C1=O` [Embelin] + Cc1cc(Nc2cc(N3CCN(C)CC3)nc(Sc3ccc(NC(=O)C4CC4)cc3)n2)n[nH]1 [Tozasertib] (partner 0.1 µM), the relative viability is 0.959.
Turning to `CCCCCCCCCCCC1=C(O)C(=O)C=C(O)C1=O` [Embelin] + CC(=O)Nc1cccc(-n2c(=O)n(C3CC3)c(=O)c3c(Nc4ccc(I)cc4F)n(C)c(=O)c(C)c32)c1 [Trametinib] (partner 0.02 µM), the relative viability stood at 0.599.
In turn, `CCCCCCCCCCCC1=C(O)C(=O)C=C(O)C1=O` [Embelin] + Nc1ncn([C@H]2C[C@H](O)[C@@H](CO)O2)c(=O)n1 [Decitabine] (partner 2 µM) gave a relative viability of 0.436.
On the same count and under the same terms, then `CCCCCCCCCCCC1=C(O)C(=O)C=C(O)C1=O` [Embelin] + COc1cccc2cc(-c3nc([C@H]4CC[C@H](C(=O)O)CC4)n4ncnc(N)c34)[nH]c12 [OSI-027] (partner 0.5 µM), with 0.648; and `CCCCCCCCCCCC1=C(O)C(=O)C=C(O)C1=O` [Embelin] + Nc1nc2[nH]cc(CCc3ccc(C(=O)N[C@@H](CCC(=O)O)C(=O)O)cc3)c2c(=O)[nH]1 [Pemetrexed] (partner 0.2 µM), with 1.01.

The same test, now with this note: first compound 0.8 µM.
The compound `CCCCCCCCCCCC1=C(O)C(=O)C=C(O)C1=O` [Embelin] + Cc1cc(Nc2cc(N3CCN(C)CC3)nc(Sc3ccc(NC(=O)C4CC4)cc3)n2)n[nH]1 [Tozasertib] (partner 0.1 µM) had a relative viability of 0.989.
Still for that read-out and setting: for `CCCCCCCCCCCC1=C(O)C(=O)C=C(O)C1=O` [Embelin] + CC(=O)Nc1cccc(-n2c(=O)n(C3CC3)c(=O)c3c(Nc4ccc(I)cc4F)n(C)c(=O)c(C)c32)c1 [Trametinib] (partner 0.02 µM) the value was 0.588.
On the same count and under the same terms, then `CCCCCCCCCCCC1=C(O)C(=O)C=C(O)C1=O` [Embelin] + Nc1ncn([C@H]2C[C@H](O)[C@@H](CO)O2)c(=O)n1 [Decitabine] (partner 2 µM), with 0.396; and `CCCCCCCCCCCC1=C(O)C(=O)C=C(O)C1=O` [Embelin] + COc1cccc2cc(-c3nc([C@H]4CC[C@H](C(=O)O)CC4)n4ncnc(N)c34)[nH]c12 [OSI-027] (partner 0.5 µM), with 0.66.
Still for that read-out and setting: then `CCCCCCCCCCCC1=C(O)C(=O)C=C(O)C1=O` [Embelin] + Nc1nc2[nH]cc(CCc3ccc(C(=O)N[C@@H](CCC(=O)O)C(=O)O)cc3)c2c(=O)[nH]1 [Pemetrexed] (partner 0.2 µM), with 1.05.

Still in this test, the particulars now being: first compound 2.53 µM.
The compound `CCCCCCCCCCCC1=C(O)C(=O)C=C(O)C1=O` [Embelin] + Cc1cc(Nc2cc(N3CCN(C)CC3)nc(Sc3ccc(NC(=O)C4CC4)cc3)n2)n[nH]1 [Tozasertib] (partner 0.1 µM) showed a relative viability of 0.998.
The same measure, in the same setting: for `CCCCCCCCCCCC1=C(O)C(=O)C=C(O)C1=O` [Embelin] + CC(=O)Nc1cccc(-n2c(=O)n(C3CC3)c(=O)c3c(Nc4ccc(I)cc4F)n(C)c(=O)c(C)c32)c1 [Trametinib] (partner 0.02 µM) the value was 0.591; for `CCCCCCCCCCCC1=C(O)C(=O)C=C(O)C1=O` [Embelin] + Nc1ncn([C@H]2C[C@H](O)[C@@H](CO)O2)c(=O)n1 [Decitabine] (partner 2 µM), 0.361.
Same read-out and setting: for `CCCCCCCCCCCC1=C(O)C(=O)C=C(O)C1=O` [Embelin] + COc1cccc2cc(-c3nc([C@H]4CC[C@H](C(=O)O)CC4)n4ncnc(N)c34)[nH]c12 [OSI-027] (partner 0.5 µM) the value was 0.572; for `CCCCCCCCCCCC1=C(O)C(=O)C=C(O)C1=O` [Embelin] + Nc1nc2[nH]cc(CCc3ccc(C(=O)N[C@@H](CCC(=O)O)C(=O)O)cc3)c2c(=O)[nH]1 [Pemetrexed] (partner 0.2 µM), 0.937.

Staying with this test, now noted: first compound 8 µM.
`CCCCCCCCCCCC1=C(O)C(=O)C=C(O)C1=O` [Embelin] + Cc1cc(Nc2cc(N3CCN(C)CC3)nc(Sc3ccc(NC(=O)C4CC4)cc3)n2)n[nH]1 [Tozasertib] (partner 0.1 µM): the relative viability was found to be 0.621.
Still for that read-out and setting: then `CCCCCCCCCCCC1=C(O)C(=O)C=C(O)C1=O` [Embelin] + CC(=O)Nc1cccc(-n2c(=O)n(C3CC3)c(=O)c3c(Nc4ccc(I)cc4F)n(C)c(=O)c(C)c32)c1 [Trametinib] (partner 0.02 µM), with 0.518.
In turn, `CCCCCCCCCCCC1=C(O)C(=O)C=C(O)C1=O` [Embelin] + Nc1ncn([C@H]2C[C@H](O)[C@@H](CO)O2)c(=O)n1 [Decitabine] (partner 2 µM) gave a relative viability of 0.266.
Consider `CCCCCCCCCCCC1=C(O)C(=O)C=C(O)C1=O` [Embelin] + COc1cccc2cc(-c3nc([C@H]4CC[C@H](C(=O)O)CC4)n4ncnc(N)c34)[nH]c12 [OSI-027] (partner 0.5 µM), for which the relative viability is 0.521.
The same measure, in the same setting: then `CCCCCCCCCCCC1=C(O)C(=O)C=C(O)C1=O` [Embelin] + Nc1nc2[nH]cc(CCc3ccc(C(=O)N[C@@H](CCC(=O)O)C(=O)O)cc3)c2c(=O)[nH]1 [Pemetrexed] (partner 0.2 µM), with 0.824.

The next test concerns A-427. The test is described as above. Particulars: first compound 0.08 µM. The method, boiled down: as §1
`CCCCCCCCCCCC1=C(O)C(=O)C=C(O)C1=O` [Embelin] + Cc1cc(Nc2cc(N3CCN(C)CC3)nc(Sc3ccc(NC(=O)C4CC4)cc3)n2)n[nH]1 [Tozasertib] (partner 0.1 µM) displayed a relative viability of 0.229.
On the same count and under the same terms, for `CCCCCCCCCCCC1=C(O)C(=O)C=C(O)C1=O` [Embelin] + CC(=O)Nc1cccc(-n2c(=O)n(C3CC3)c(=O)c3c(Nc4ccc(I)cc4F)n(C)c(=O)c(C)c32)c1 [Trametinib] (partner 0.02 µM) the value was 0.732.
The same measure, in the same setting: for `CCCCCCCCCCCC1=C(O)C(=O)C=C(O)C1=O` [Embelin] + Nc1ncn([C@H]2C[C@H](O)[C@@H](CO)O2)c(=O)n1 [Decitabine] (partner 2 µM) the value was 0.494; for `CCCCCCCCCCCC1=C(O)C(=O)C=C(O)C1=O` [Embelin] + COc1cccc2cc(-c3nc([C@H]4CC[C@H](C(=O)O)CC4)n4ncnc(N)c34)[nH]c12 [OSI-027] (partner 0.5 µM), 0.424.
Still for that read-out and setting: then `CCCCCCCCCCCC1=C(O)C(=O)C=C(O)C1=O` [Embelin] + Nc1nc2[nH]cc(CCc3ccc(C(=O)N[C@@H](CCC(=O)O)C(=O)O)cc3)c2c(=O)[nH]1 [Pemetrexed] (partner 0.2 µM), with 0.993.

Staying with this test, now noted: first compound 0.8 µM.
The compound `CCCCCCCCCCCC1=C(O)C(=O)C=C(O)C1=O` [Embelin] + Cc1cc(Nc2cc(N3CCN(C)CC3)nc(Sc3ccc(NC(=O)C4CC4)cc3)n2)n[nH]1 [Tozasertib] (partner 0.1 µM) returned a relative viability of 0.196.
On the same count and under the same terms, for `CCCCCCCCCCCC1=C(O)C(=O)C=C(O)C1=O` [Embelin] + CC(=O)Nc1cccc(-n2c(=O)n(C3CC3)c(=O)c3c(Nc4ccc(I)cc4F)n(C)c(=O)c(C)c32)c1 [Trametinib] (partner 0.02 µM) the value was 0.785; for `CCCCCCCCCCCC1=C(O)C(=O)C=C(O)C1=O` [Embelin] + Nc1ncn([C@H]2C[C@H](O)[C@@H](CO)O2)c(=O)n1 [Decitabine] (partner 2 µM), 0.555.
